Among the data in patent US11014934B2, “Antiseptic drug” (AO “TATKHIMFARMPREPARATY”, priority 2017, dated 2021) are MIC values, retold here.

Common to all, as to test: MIC, serial dilutions in Müller-Hinton broth
Holding throughout (format): cell-based

For one assay, the system named is Pseudomonas spp. 5. The procedure, abridged:
(§1)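 Broth microdilution in Müller-Hinton broth following MUK 4.2.1890-04, with two-fold compound dilutions at final 1-128 ug/ml. The inoculum was set to 0.5 McFarland and diluted to 10^7 CFU/ml before addition, then plates were incubated at 37° C. for 24 hours. MIC was the lowest concentration without visible growth, taking the highest of three independent runs.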

The subject of another assay is E. faecium 4403. The procedure, abridged:
as §1

The test system of the next assay is S. intermedius 1061 MRSI. The gist of the method: as §1
For a further assay, the system named is Kl. pneumoniae 1342 PR. The procedure, abridged:
as §1

Another assay concerns Ps. aeruginosa 1945 PR. The procedure, abridged: as §1
The subject of the next assay is S. aureus 967 MRSA. The gist of the method: as §1
The next assay relates to S. aureus 18. The gist of the method: as §1
The subject of another assay is S. aureus 1173 MRSA. The procedure, abridged:
as §1

In assay [1] the test system is Ps. aeruginosa ATTC 27853. The procedure, abridged: as §1
Another assay has as its system E. faecium 30. The procedure, abridged: as §1
The test system of a further assay is S. aureus 1053a. The procedure, abridged:
as §1

The next assay relates to Ps. aeruginosa 2869. The procedure, abridged:
as §1

The next assay concerns E. faecium 4402. The procedure, abridged:
as §1

For a further assay, the system named is B. subtilis 168. The gist of the method:
as §1

The next assay concerns E. coli 1440. The procedure, abridged: as §1
The subject of a further assay is Kl. pneumoniae 1766. The procedure, abridged:
as §1

The next assay deals with S. aureus 981 MRSA. The gist of the method: as §1
Another assay concerns Enterobacter spp. 16. The procedure, abridged: as §1
Another assay concerns Kl. pneumoniae 1812 PR. The procedure, abridged:
as §1

Another assay relates to E. faecium 24. The procedure, abridged: as §1
The test system of another assay is S. aureus 21. The gist of the method:
as §1

The subject of another assay is S. aureus 983 MRSA. The gist of the method: as §1

Like-named read-outs stand apart in the source and are kept apart here.

Turning to `CCCCCCCCCCCC[N+](C)(C)Cc1cnc(C[N+](C)(C)CCCCCCCCCCCC)c2c1COC(CC)O2` (stereo not drawn) [Compound I, 5,8-(Bis(methylene (N, N-dimethyl-N-dodecylammonium))-2-ethyl-4H-[1,3]dioxino [4,5-c]pyridiniumdichloride], the MIC (in general, the lowest concentration that inhibits growth of the organism) with Pseudomonas spp. 5 (Pseudomonas spp. 5, inoculum 10^7 CFU/ml, read-out: MIC) was determined as 8 µg/mL; in the assay on E. faecium 4403 (Enterococcus faecium, E. faecium 4403, inoculum 10^7 CFU/ml, read-out: MIC), 0.03 µg/mL; in the assay on S. intermedius 1061 MRSI (S. intermedius 1061 MRSI, inoculum 10^7 CFU/ml, read-out: MIC), 1 µg/mL; with Kl. pneumoniae 1342 PR (Klebsiella pneumoniae, Kl. pneumoniae 1342 PR, inoculum 10^7 CFU/ml, read-out: MIC), 32 µg/mL; in the assay on Ps. aeruginosa 1945 PR (Pseudomonas aeruginosa, Ps. aeruginosa 1945 PR, inoculum 10^7 CFU/ml, read-out: MIC) it was 64 µg/mL; in the assay with S. aureus 967 MRSA (Staphylococcus aureus, S. aureus 967 MRSA, inoculum 10^7 CFU/ml, read-out: MIC), 16 µg/mL. The MIC in the assay on S. aureus 18 (Staphylococcus aureus, S. aureus 18, inoculum 10^7 CFU/ml, read-out: MIC) was determined as 4 µg/mL; in the assay on S. aureus 1173 MRSA (Staphylococcus aureus, S. aureus 1173 MRSA, inoculum 10^7 CFU/ml, read-out: MIC), 2 µg/mL; in assay [1] (Pseudomonas aeruginosa, ATTC27853, Ps. aeruginosa ATTC 27853, inoculum 10^7 CFU/ml, read-out: MIC), 4 µg/mL; in the assay on E. faecium 30 (Enterococcus faecium, E. faecium 30, inoculum 10^7 CFU/ml, read-out: MIC), 0.03 µg/mL; in the assay with S. aureus 1053a (Staphylococcus aureus, S. aureus 1053a, inoculum 10^7 CFU/ml, read-out: MIC), 2 µg/mL; in the assay with Ps. aeruginosa 2869 (Pseudomonas aeruginosa, Ps. aeruginosa 2869, inoculum 10^7 CFU/ml, read-out: MIC) it was 32 µg/mL. In addition, the MIC in the assay on E. faecium 4402 (Enterococcus faecium, E. faecium 4402, inoculum 10^7 CFU/ml, read-out: MIC) was 0.06 µg/mL; in the assay on B. subtilis 168 (Bacillus subtilis, B. subtilis 168, inoculum 10^7 CFU/ml, read-out: MIC) it was 2 µg/mL; in the assay on E. coli 1440 (Escherichia coli, E. coli 1440, inoculum 10^7 CFU/ml, read-out: MIC), 32 µg/mL; in the assay with Kl. pneumoniae 1766 (Klebsiella pneumoniae, Kl. pneumoniae 1766, inoculum 10^7 CFU/ml, read-out: MIC), 16 µg/mL; in the assay on S. aureus 981 MRSA (Staphylococcus aureus, S. aureus 981 MRSA, inoculum 10^7 CFU/ml, read-out: MIC), 4 µg/mL; in the assay on Enterobacter spp. 16 (Enterobacter spp. 16, inoculum 10^7 CFU/ml, read-out: MIC), 8 µg/mL. Moreover, the MIC was 64 µg/mL in the assay on Kl. pneumoniae 1812 PR (Klebsiella pneumoniae, Kl. pneumoniae 1812 PR, inoculum 10^7 CFU/ml, read-out: MIC); 0.03 µg/mL in the assay with E. faecium 24 (Enterococcus faecium, E. faecium 24, inoculum 10^7 CFU/ml, read-out: MIC); 1 µg/mL in the assay with S. aureus 21 (Staphylococcus aureus, S. aureus 21, inoculum 10^7 CFU/ml, read-out: MIC); 8 µg/mL in the assay with S. aureus 983 MRSA (Staphylococcus aureus, S. aureus 983 MRSA, inoculum 10^7 CFU/ml, read-out: MIC).

Take “alkyldimethyl(phenylmethyl) ammonium chloride [Benzalconium chloride]”: the MIC against Pseudomonas spp. 5 (Pseudomonas spp. 5, inoculum 10^7 CFU/ml) is 32 µg/mL; against E. faecium 4403 (E. faecium 4403, inoculum 10^7 CFU/ml), 2 µg/mL; in the assay with S. intermedius 1061 MRSI (S. intermedius 1061 MRSI, inoculum 10^7 CFU/ml), 4 µg/mL; in the assay with Kl. pneumoniae 1342 PR (Kl. pneumoniae 1342 PR, inoculum 10^7 CFU/ml) it was 32 µg/mL; in the assay on Ps. aeruginosa 1945 PR (Ps. aeruginosa 1945 PR, inoculum 10^7 CFU/ml), above 64 µg/mL; in the assay with S. aureus 967 MRSA (S. aureus 967 MRSA, inoculum 10^7 CFU/ml), 8 µg/mL. The MIC against S. aureus 18 (S. aureus 18, inoculum 10^7 CFU/ml) is below 0.5 µg/mL; against S. aureus 1173 MRSA (S. aureus 1173 MRSA, inoculum 10^7 CFU/ml), 8 µg/mL; in assay [1] (Ps. aeruginosa ATTC 27853, inoculum 10^7 CFU/ml), above 64 µg/mL; with E. faecium 30 (E. faecium 30, inoculum 10^7 CFU/ml) it was below 0.5 µg/mL; in the assay on S. aureus 1053a (S. aureus 1053a, inoculum 10^7 CFU/ml), 1 µg/mL; with Ps. aeruginosa 2869 (Ps. aeruginosa 2869, inoculum 10^7 CFU/ml), 64 µg/mL. In addition, the MIC in the assay with E. faecium 4402 (E. faecium 4402, inoculum 10^7 CFU/ml) was 1 µg/mL; against B. subtilis 168 (B. subtilis 168, inoculum 10^7 CFU/ml), 0.5 µg/mL; against E. coli 1440 (E. coli 1440, inoculum 10^7 CFU/ml) it was 32 µg/mL; in the assay with Kl. pneumoniae 1766 (Kl. pneumoniae 1766, inoculum 10^7 CFU/ml) it was 16 µg/mL; with S. aureus 981 MRSA (S. aureus 981 MRSA, inoculum 10^7 CFU/ml), 4 µg/mL; against Enterobacter spp. 16 (Enterobacter spp. 16, inoculum 10^7 CFU/ml), 4 µg/mL. Besides, the MIC in the assay on Kl. pneumoniae 1812 PR (Kl. pneumoniae 1812 PR, inoculum 10^7 CFU/ml) is 64 µg/mL; against E. faecium 24 (E. faecium 24, inoculum 10^7 CFU/ml), below 0.5 µg/mL; against S. aureus 21 (S. aureus 21, inoculum 10^7 CFU/ml) it was below 0.5 µg/mL; against S. aureus 983 MRSA (S. aureus 983 MRSA, inoculum 10^7 CFU/ml) it was 4 µg/mL.

Take `CCCCCCCCCCCCCC(=O)NCCC[N+](C)(C)Cc1ccccc1.O.[Cl-]` [Miramistin, benzyldimethyl [3-(myristoylamino)propyl]-ammonium chloride monohydrate]: the MIC was above 64 µg/mL against Pseudomonas spp. 5 (Pseudomonas, SPP.5); 64 µg/mL in the assay with E. faecium 4403 (Enterococcus faecium, 4403); 8 µg/mL against S. intermedius 1061 MRSI; 64 µg/mL in the assay on Kl. pneumoniae 1342 PR (Klebsiella pneumoniae, 1342PR); above 64 µg/mL against Ps. aeruginosa 1945 PR (Pseudomonas aeruginosa, 1945PR); 16 µg/mL in the assay with S. aureus 967 MRSA (Staphylococcus aureus, MRSA). Also, the MIC with S. aureus 18 (Staphylococcus aureus, 18) is 16 µg/mL; with S. aureus 1173 MRSA (Staphylococcus aureus, MRSA), 16 µg/mL; in assay [1] (Pseudomonas aeruginosa, ATTC27853) it was above 64 µg/mL; in the assay on E. faecium 30 (Enterococcus faecium, 30) it was below 0.5 µg/mL; in the assay with S. aureus 1053a (Staphylococcus aureus, 1053A) it was 4 to 8 µg/mL; in the assay with Ps. aeruginosa 2869 (Pseudomonas aeruginosa, 2869), 64 µg/mL. The MIC against E. faecium 4402 (Enterococcus faecium, 4402) was found to be 4 µg/mL; with B. subtilis 168 (Bacillus subtilis, 168), 2 µg/mL; in the assay with E. coli 1440 (Escherichia coli, 1440), 64 µg/mL; with Kl. pneumoniae 1766 (Klebsiella pneumoniae, 1766), 64 µg/mL; with S. aureus 981 MRSA (Staphylococcus aureus, MRSA), 4 µg/mL; in the assay with Enterobacter spp. 16 (Enterobacter, SPP.16), 64 µg/mL. Moreover, the MIC was found to be 64 µg/mL against Kl. pneumoniae 1812 PR (Klebsiella pneumoniae, 1812PR); 16 µg/mL in the assay with E. faecium 24 (Enterococcus faecium, 24); 16 µg/mL in the assay on S. aureus 21 (Staphylococcus aureus, 21); 4 µg/mL in the assay with S. aureus 983 MRSA (Staphylococcus aureus, MRSA).
